Source: PubChem BioAssay AID179 (DTP/NCI, 2004)
Values joined by “and” are separate entries in the source; they are usually repeats but may differ in a detail not shown here. Equal values may be shown once. Active and inactive are the calls of the source.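 Rule for the calls: active = compounds giving half or more protection of infected cells from virus-caused growth loss, again on retest; inactive = the rest.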 Where a SMILES comes first, the peptide text is derived from it.

Test system: CEM cells HIV-1 protection, formazan growth assay
Assay: NCI AIDS Antiviral Assay
Settings: for IC50: measured here: growth of uninfected CEM cells
In short: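 Protection of CEM cells against HIV-1 was scored from cell growth (soluble formazan) across five concentrations, with parallel uninfected cells. Lack of protection may reflect toxicity.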

Row | SMILES | EC50 | IC50 | outcome
1 | N#CNC(=NCCO)NCCO | > 525 µM | > 525 µM | –
2 | N#Cc1cc2c(n(C3OC(CO)C(O)C(O)C3O)c1=S)CCCCCC2 (configuration not stated) | > 200 µM | > 200 µM | –
3 | CC(C)CCCC(C)[C@H]1CCC2[C@H]3C(CC[C@@]21C)[C@@]1(C)CCC=C[C@]12C[C@@H]2[C@@H]3O (some centres not stated) | – | – | inactive
4 | COc1ccc(C2C(C#N)=C(S)N(C3OC(COC(C)=O)C(OC(C)=O)C(OC(C)=O)C3OC(C)=O)C(C)=C2C(C)=O)cc1 (configuration not stated) | > 200 µM | 53.7 µM | –
5 | N#CC(C#N)=Cc1cccc(F)c1 | > 209 µM | 42.7 µM | –
6 | COc1cccc(C2c3cc4c(cc3OC(Nc3ccccc3)C2C)OCO4)c1OC (configuration not stated) | > 200 µM | 2.95 µM | –
7 | COc1ccc(/C=N\N2CC(=O)N3C4C=CC(CC4)N3C2=O)cc1 (configuration not stated) | > 200 µM | > 200 µM | –
8 | CN(C(=O)C12C3C4C1C1C2C3C41C(=O)C(C)(C)C)C(C)(C)C (configuration not stated) | > 6.61 µM | > 6.61 µM | –
9 | N#CC12C3C4CC5C6C4C1C6C(O)(C53)N2Cc1ccccc1 (configuration not stated) | > 447 µM | 257 µM | –
10 | CN(C)C1C(=O)C(C(=O)NCNC(CO)(CO)CO)=C(O)C2(O)C(=O)C3=C(O)c4c(O)cccc4C(C)(O)C3CC12 (configuration not stated) | > 200 µM | 132 µM | –
11 | O=S(=O)(O)SCNCNCCSCc1ccccc1 | > 138 µM | 45.7 µM | –
12 | Cc1cn(C2OC(CO[Si](C)(C)C(C)(C)C)C(N(C)O[Si](C)(C)C(C)(C)C)C2[Se]c2ccccc2)c(=O)[nH]c1=O (configuration not stated) | > 200 µM | 8.32 µM | –
13 | CCCCCCC1N(Cc2ccc(Cl)cc2)CCCN1Cc1ccc(Cl)cc1 | > 200 µM | 12 µM | –
14 | O=C(NCCCCNCCCNC(=O)OCc1ccccc1)OCc1ccccc1 | > 200 µM | 33.1 µM | –
15 | Cc1ccc(-c2n[nH]c(=O)n2/N=C\c2ccc([N+](=O)[O-])cc2)cc1 | > 200 µM | 58.9 µM | –
16 | CC(C)CC(NC(=O)C(Cc1cnc[nH]1)NC(=O)C(CC(N)=O)NC(=O)C(NC(=O)C(CO)NC(=O)C(Cc1ccc(O)cc1)NC(=O)C(CO)NC(=O)C(C)NC(=O)C(CCCCN)NC(=O)C(N)CC(=O)O)C(C)O)C(=O)O (configuration not stated) (H-DKASYSTNHL-OH; configuration not given here) | > 55 µM | > 55 µM | –
17 | COC1CCCCC1C(N)C(=O)O (configuration not stated) (tested in a mixture with another compound) | > 200 µM | > 200 µM | –
18 | O=C(O)C1CC(c2ccc(F)cc2)=Nc2ccc(F)cc2S1 (configuration not stated) | > 200 µM | > 200 µM | –
19 | O=C(O)CCSC(=O)Nc1cccc(F)c1 | – | – | inactive
20 | Cn1cc(NC(=O)c2cc(NC(=O)Nc3cc(C(=O)Nc4cc(C(=O)NCCC(=N)N)n(C)c4)n(C)c3)cn2C)cc1C(=O)NCCC(=N)N | 15.1 µM | 77.6 µM | –
21 | CCN(CC)CCn1c2cc3c(cc2c(=O)c2cccnc21)OCCO3 | > 200 µM | 6.61 µM | –
22 | CCCCOCCOC(=O)C1C(C=C(C)C)C1(C)C (configuration not stated) | > 200 µM | > 200 µM | –

Row | SMILES | EC50 | IC50 | outcome
23 | COc1cc(=O)n2c3ccccc3n(C)c2c1C#N | > 100 µM | 56.2 µM | –
24 | Cc1cn(C2CC(F)C(CO)O2)c(=O)[nH]c1=O (configuration not stated) | 0.011 µM | 2 µM | –
25 | CCc1cccc(CC)c1NC(=S)N/C=C(\C#N)C(=O)c1ccc2ccccc2c1 | – | – | inactive
26 | CC(C)CNC(=O)CCc1cccc2c1oc1c(CCN)cccc12 | > 200 µM | 14.8 µM | –
27 | CC1=CC(=O)CC2(C)CC[C@@H]3C[C@]12OC3(C)C (some centres not stated) | – | – | inactive
28 | CCN(CC)CCN1C(=O)c2cccc3cc(N)cc(c23)C1=O | > 200 µM | 8.13 µM | –
29 | O=C(CC(O)(C(F)(F)F)C(F)(F)F)c1ccc(-c2ccccc2)cc1 | > 200 µM | 33.9 µM | –
30 | CC(C)=CCC[C@@H](C)C1=C(O)C(N[C@H](C)c2ccccc2)=C(C)C(=O)C1=O | > 200 µM | 1.66 µM | –
31 | CC(C)(C)SS(=O)C(C)(C)C (configuration not stated) | > 97.7 µM | > 97.7 µM | –
32 | COc1ccc(C2=Nc3ccccc3SC(C)C2)cc1 (configuration not stated) | > 13.2 µM | > 13.2 µM | –
33 | CCOc1ccc(/C=N/NC(=O)C(=O)N/N=C/c2ccc(OCC)c(OCC)c2)cc1OCC | > 200 µM | > 200 µM | –
34 | O=c1[nH]c(O)c(/C=N/C(=S)NCc2ccccc2)c(=O)[nH]1 | > 200 µM | 195 µM | –
35 | c1ccc([P+](Cc2ccc3c(c2)OCO3)(c2ccccc2)c2ccccc2)cc1 | > 200 µM | 3.39 µM | –
36 | CC(=O)Nc1ccc(S(=O)(=O)N/N=C(\C)CN2C(=O)c3ccccc3C2=O)cc1 | > 229 µM | > 229 µM | –
37 | COC(=O)c1cc2cc(O)c(O)cc2cn1 | > 200 µM | > 8.32 µM and 12 µM | –
38 | N#C/C(=C\c1cc(Cl)ccc1O)C1CCC([N+](=O)[O-])CC1 (configuration not stated) | > 200 µM | 30.2 µM | –
39 | O=S1(=O)Cc2ccccc21 | > 1170 µM | 589 µM | –
40 | CC(C)C(O)S(=O)(=O)O (configuration not stated) | > 200 µM | > 200 µM | –
41 | Cc1ccccc1NC(=O)C(=O)CC(=O)c1c(C)n([O-])c2ccccc2[n+]1=O | > 3.8 µM | > 3.8 µM | –
42 | Nc1onc2c1Cc1c(noc1N)-c1ccccc1-2 | > 200 µM | 166 µM | –
43 | CC(=O)c1sc(/N=C\c2c(O)c3ccccc3oc2=O)nc1C | > 200 µM | 38.9 µM | –
44 | Cc1ccc(NC(=O)C(=O)C2C(=O)NC(=O)NC2=O)cc1C | > 117 µM | > 117 µM | –

Row | SMILES | EC50 | IC50 | outcome
45 | O=c1c(O)c(-c2ccc(O)c(O)c2)oc2cc(O)cc(O)c12 | – | – | inactive
46 | COc1c(OC)c(OC)c(-c2cc(=O)c3c(OC)c(OC)c(OC)c(OC)c3o2)c(OC)c1OC | > 200 µM | 56.2 µM | –
47 | O=C(Cc1csc2[n+]1C(=O)/C(=C/c1ccc(Cl)cc1)S2)Nc1ccccc1 | > 200 µM | 30.2 µM | –
48 | COc1cc(NCc2ccc3nc(-c4ccccc4)c(N)nc3c2)cc(OC)c1OC | > 200 µM | 49 µM | –
49 | CCOC(=O)C(=Cc1cc(OC)ccc1OC)C(=O)OCC | > 117 µM | 18.2 µM | –
50 | CC1(C)OC(=O)N(c2ccccc2)C12C=Cc1cc([N+](=O)[O-])cc([N+](=O)[O-])c1O2 (configuration not stated) | > 200 µM | 117 µM | –
51 | CCN(CC)CCN1CCNc2c3cc(OC)ccc3nc3c([N+](=O)[O-])ccc1c23 | > 100 µM | 1.58 µM | –
52 | CC(=O)Nc1cccc(N2C(=O)/C(=C\c3cccc(Oc4ccccc4)c3)S(=O)(=O)C2c2ccccc2)c1 (configuration not stated) | > 200 µM | 34.7 µM | –
53 | CC(C)C1=CC2=C[C@H](O)[C@H]3C(C)(C)CCC[C@]3(C)C2=C(O)C1=O | > 20 µM | 1.62 µM | –
54 | CCCN=C(NC(=O)c1ccc(Cl)cc1)SC | > 200 µM | > 200 µM | –
55 | COc1ccc(/C(Cl)=C(\C=O)c2ccccc2)cc1OC | – | – | inactive
56 | NCCS/C=C\C(=O)OCc1ccc(Br)cc1 | > 708 µM | 64.6 µM | –
57 | OC1(c2ccccc2)CC2CCC(C1)N2CCCC1(c2ccc(F)cc2)OCCO1 (configuration not stated) | > 200 µM | 162 µM | –
58 | COc1ccc(/C=C2\C(=O)NC(=O)c3ccccc32)cc1OC | > 60.3 µM | 31.6 µM | –
59 | COc1cc2c(cc1OC)C(Cc1ccccc1CCCl)=NCC2 | > 200 µM | 29.5 µM | –
60 | CC(=O)ON(C)C1CC(=O)OC1CO[Si](C)(C)C(C)(C)C (configuration not stated) | > 200 µM | 93.3 µM | –
61 | CC(C)(C)c1cc(Nc2c([N+](=O)[O-])cc([N+](=O)[O-])cc2[N+](=O)[O-])cc(C(C)(C)C)c1O | > 16.6 µM | > 16.6 µM | –
62 | Cn1ccc(=NS(=O)(=O)c2ccccc2)cc1 | – | – | inactive
63 | COC(=O)Cc1nc2ccccc2o1 | > 1290 µM | 33.9 µM | –
64 | COC(=O)[C@@H]1N2C(=S)N(c3ccccc3)C(=O)[C@H]2SC1(C)C | > 200 µM | > 200 µM | –
65 | CCN(CC)C(=O)C(C)n1cc(C)c(=O)[nH]c1=O (configuration not stated) | > 977 µM | > 977 µM | –
66 | CC(C)CCn1nc(N)c2nc3ccccc3nc21 | > 200 µM | 112 µM | –

Row | SMILES | EC50 | IC50 | outcome
67 | O=[N+]([O-])c1cccc2nc3ccccc3c(NCCCN3CCOCC3)c12 | > 0.2 µM | 0.0631 µM | –
68 | COc1ccc(/C=C(\C)C=C(C#N)C#N)cc1 | > 44.7 µM | 34.7 µM | –
69 | CNCCCCN(C)/[N+]([O-])=N\O | > 8910 µM | 4070 µM | –
70 | [Co].[O-]c1cccnc1C=Nc1ccccc1.[OH3+] | > 240 µM | 35.5 µM | –
71 | NC(=O)c1ncn(CC2(COC(=O)c3ccccc3)CCC2)n1 | > 200 µM | > 200 µM | –
72 | CC12CCC3c4cc(Br)c(O)c(Br)c4CCC3C1CCC2O (configuration not stated) | > 200 µM | 6.76 µM | –
73 | OC(C1CCCC1=N/N=C1/CCCC1C(O)(C(F)(F)Cl)C(F)(F)Cl)(C(F)(F)Cl)C(F)(F)Cl (configuration not stated) | > 50.1 µM | > 50.1 µM | –
74 | CCOC(=O)C(=CNC(=S)Nc1ccccc1)C(=O)OCC | > 200 µM | > 200 µM | –
75 | O=c1cc(CNC2CCCC2)[nH]c(=O)[nH]1 | – | – | inactive
76 | COc1cc(OC)c(-n2[nH]c(=O)n(C)c2=O)c(OC)c1 | > 200 µM | > 200 µM | –
77 | O=C(NNc1nc2ccccc2n2cccc12)c1cnccn1 | > 2 µM | 0.417 µM | –
78 | CC12CCC(c3sc(N)c(C#N)c31)C2(C)C (configuration not stated) | > 191 µM | 35.5 µM | –
79 | O=Nc1c(O)cc(Nc2cccnc2)c2ccccc12 | 102 µM | 182 µM | –
80 | O=C(c1cccs1)N(C(=S)N1CCN(c2ccccn2)CC1)c1ccccc1 | > 17.8 µM | > 17.8 µM | –
81 | COC(=O)[C@@H]1[C@@H]2NC(=S)N[C@@]1(C)Oc1ccccc12 | – | – | inactive
82 | CSC1=NS(=O)(=O)c2cc(C(=O)NN(C)C(=O)c3cc4c(cc3Cl)SC(SC)=NS4(=O)=O)c(Cl)cc2S1 | > 200 µM | 91.2 µM | –
83 | C=C1CC(Cn2ccc(=O)[nH]c2=O)(c2ccc(OC)cc2)OC1=O (configuration not stated) | > 200 µM | 2.75 µM | –
84 | Oc1cc2c(cc1O)C1c3ccc(O)c(O)c3OCC1(O)C2 (configuration not stated) | > 200 µM | 9.55 µM | –
85 | O=C1NC2c3c(I)sc(I)c3C(=O)C2O1 (configuration not stated) | 0.603 µM | 1.12 µM | –
86 | CNN1C(=O)c2c(C)c(C)c(C#N)c(N)c2C1=O | > 200 µM | > 200 µM | –
87 | OCCNc1nc(Cl)nc(Cl)n1 | > 200 µM | > 200 µM | –
88 | COc1cc(Nc2nc3ccc(C(F)(F)F)cc3nc2-c2ccccc2)cc(OC)c1OC | > 20.9 µM | > 20.9 µM | –
